Measurements from patent US4569943A, “Physiologically active substance P-23924, its production and use” (Takeda Chemical Industries, Ltd., priority 1982, dated 1986).

What was measured:
[1] = biological target: T1, Protocollagen prolyl hydroxylase (Gallus gallus, UniProt P16924); test: Protocollagen prolyl hydroxylase inhibiting activity (method of R. E. Rhoads, substrate (Pro-Pro-Gly)5.4H2O); format: biochemical, chick embryo; settings: for IC50: 100 μg (as protein) of partially purified enzyme preparation from chick embryo, read-out: Concentration of P-23924 required for a 50% inhibition; for inhibition at 12.5 µM: 12.5 μM compound, 100 μg enzyme
T1 construct: partially purified enzyme preparation derived from chick embryo; from tissue; host or cells: chick embryo (partially purified enzyme preparation)
T1 sequence (P16924 1-516): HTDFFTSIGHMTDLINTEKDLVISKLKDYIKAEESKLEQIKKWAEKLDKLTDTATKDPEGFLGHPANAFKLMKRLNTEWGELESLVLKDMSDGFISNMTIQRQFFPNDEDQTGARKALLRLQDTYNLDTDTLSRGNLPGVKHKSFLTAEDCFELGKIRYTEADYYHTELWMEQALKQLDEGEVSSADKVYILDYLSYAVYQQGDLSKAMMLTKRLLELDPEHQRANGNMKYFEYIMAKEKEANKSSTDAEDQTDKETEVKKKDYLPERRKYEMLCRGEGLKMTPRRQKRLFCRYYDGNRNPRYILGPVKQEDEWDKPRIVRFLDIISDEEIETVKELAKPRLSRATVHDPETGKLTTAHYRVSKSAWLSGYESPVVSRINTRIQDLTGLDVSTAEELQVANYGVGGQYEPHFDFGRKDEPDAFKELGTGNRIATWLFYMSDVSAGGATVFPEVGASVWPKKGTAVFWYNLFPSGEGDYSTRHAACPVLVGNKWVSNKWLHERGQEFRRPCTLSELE
T1 sequence (P09102 23-515 partner): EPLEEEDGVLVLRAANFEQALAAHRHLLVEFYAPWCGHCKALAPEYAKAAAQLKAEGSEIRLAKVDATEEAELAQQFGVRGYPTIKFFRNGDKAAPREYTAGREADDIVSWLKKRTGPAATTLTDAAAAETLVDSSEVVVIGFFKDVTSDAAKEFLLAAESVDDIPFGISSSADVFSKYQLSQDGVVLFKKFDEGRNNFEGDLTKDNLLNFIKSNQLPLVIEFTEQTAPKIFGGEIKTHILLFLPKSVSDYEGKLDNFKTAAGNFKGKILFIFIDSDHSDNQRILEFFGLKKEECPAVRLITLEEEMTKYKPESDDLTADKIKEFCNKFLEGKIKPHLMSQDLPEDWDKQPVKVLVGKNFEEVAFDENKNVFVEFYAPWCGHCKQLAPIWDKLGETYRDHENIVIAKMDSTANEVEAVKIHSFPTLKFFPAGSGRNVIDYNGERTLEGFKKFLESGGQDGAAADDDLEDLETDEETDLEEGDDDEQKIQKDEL
Protocol: (a) Protocollagen prolyl hydroxylase inhibiting activity: This inhibitory activity was assayed by the method of R. E. Rhoads [Methods in Enzymology XVII B, 306 (1971)] using a partially purified enzyme preparation derived from chick embryo in accordance with the methods of K. I. Kivirriko et al and J. Halme et al. [Journal of Biological Chemistry 242, 4007 (1967) and Biochimica et Biophysica Acta 198, 460 (1967)] and, as the substrate, (Pro-Pro-Gly)5.4H2 O [manufactured by Tanpakushitsu Kenkyu Shoreikai (Protein Research Foundation Society), Osaka, Japan]. The concentrations of P-23924 required for a 50% inhibition of 100 μg (as protein) of said partially purified enzyme preparation were as follows.
On the other hand, by a similar procedure as above, the protocollagen prolyl hydroxylase inhibiting activities on the compounds of P-23924 AR, BR, CR and DR are measured.

[2] = tested on: collagen biosynthesis (uterus); test: Collagen biosynthesis suppressant activity in uterus of estradiol-17β treated rats (method of T. Ishimaru et al); format: in vivo, SD rats; settings: for Body weight of rats / Collagen content of uterus / Total protein content of uterus: groups of 10; for % Inhibition: Non-collagenous protein: total protein content - collagen
From the text: (b) Collagen biosynthesis suppressant activity: In accordance with the method of T. Ishimaru et al [Biochemical Pharmacology 31, 915 (1982)], P-23924 was intraperitoneally administered to SD rats (females, 3 weeks old) once daily for 6 consecutive days and the collagen content and non-collagenous protein content of the uterus were compared with those of control animals. […] I | said tests, rats were used in groups of 10 individuals.

[3] = Acute toxicity [LD50] by the intraperitoneal route; settings: rat, in vivo, ip, rats
From the text: The acute toxicity [LD50 ] values of P-23924 in rats by the intraperitoneal route are given below.

Solubility = format: physicochemical
[4] = Description (acidity, fat solubility); format: physicochemical
[5] = biological target: T1, Protocollagen prolyl hydroxylase; test: Protocollagen prolyl hydroxylase inhibiting activity (method of R. E. Rhoads, substrate (Pro-Pro-Gly)5.4H2O); format: biochemical, chick embryo; settings: 3.13 μM compound, 20 μg enzyme
[6] = 1 mg/kg i.p. once daily 6 days + Estradiol-17β (5 μg), P < 0.05 (B: P < 0.02, C: P < 0.01)
[7] = 1 mg/kg i.p. once daily 6 days + Estradiol-17β (5 μg)
[8] = in chloroform, n-hexane and petroleum ether
[9] = 50 mg/kg i.p. once daily 6 days + Estradiol-17β (5 μg)
[10] = in acetone, chloroform, n-hexane and petroleum ether
[11] = in dimethyl sulfoxide, dimethylformamide, pyridine and 5% aqueous sodium hydrogen carbonate
[12] = in methanol, dioxane and acetic acid
[13] = in dimethylsulfoxide, pyridine, ethyl acetate, chloroform, dioxan

Compound | IC50 [1] | % Inhibition: Collagen [2, 6] | Body weight of rats [2, 7] | Collagen content of uterus [2, 7] | Total protein content of uterus [2, 7] | % Inhibition: Non-collagenous protein [2, 7] | LD50 [3] | Solubility (Solubility; in water) | Description [4] | Solubility (Solubility; [10]) | Solubility (Solubility; [11]) | Solubility (Solubility; [12]) | inhibition at 12.5 µM [1] | Solubility (Solubility; [13]) | Solubility (Solubility; in n-hexane, petroleum ether) | inhibition at 3.13 µM [5] | further results
COc1cc2c(c(O)c1CSCC(NC(C)=O)C(=O)O)C(=O)C(CO)=CC2=O (stereo not shown) [P-23924E] | 21 µM | 34% | 72 ± 4 g | 2.52 ± 0.36 mg | 15.73 ± 1.59 mg | 9% | ~50 mg/kg | slightly soluble or insoluble | acidic and fat-soluble |  |  |  |  |  |  |  | Solubility (Solubility; [8]): slightly soluble or insoluble; Solubility (Solubility; in dimethyl sulfoxide, dimethylformamide, pyridine, 5% aqueous sodium hydrogen carbonate and methanol): easily soluble; Solubility (Solubility; in dioxane and acetic acid): soluble
COC1=C(C)C(=O)c2c(cc(O)c(CSCC(NC(C)=O)C(=O)O)c2O)C1=O (stereo not shown) [P-23924D] | 270 µM |  |  |  |  |  | > 400 mg/kg | slightly soluble or insoluble | acidic and fat-soluble | slightly soluble or insoluble | easily soluble | soluble |  |  |  |  | % Inhibition: Collagen ([2]; 50 mg/kg i.p. once daily 6 days + Estradiol-17β (5 μg), P < 0.05): 32%; Body weight of rats [2, 9]: 72 ± 3 g; Collagen content of uterus [2, 9]: 2.55 ± 0.30 mg; Total protein content of uterus [2, 9]: 15.63 ± 1.43 mg; % Inhibition: Non-collagenous protein [2, 9]: 11%
COc1cc2c(c(O)c1CSCC(NC(C)=O)C(=O)O)C(=O)C(C)=CC2=O (stereo not shown) [P-23924A] | 67 µM | 33% | 73 ± 3 g | 2.53 ± 0.35 mg | 15.67 ± 1.63 mg | 10% | 100 to 200 mg/kg | slightly soluble or insoluble | acidic and fat-soluble | slightly soluble or insoluble | easily soluble | soluble |  |  |  |  | 
COC1=CC(=O)c2c(cc(OC)c(CSCC(NC(C)=O)C(=O)O)c2O)C1=O (stereo not shown) [P-23924C] | 57 µM | 61% | 73 ± 6 g | 2.19 ± 0.49 mg | 14.01 ± 1.51 mg | 30% | 100 to 200 mg/kg | slightly soluble or insoluble | acidic and fat-soluble |  | easily soluble |  |  |  |  |  | Solubility (Solubility; [8]): slightly soluble or insoluble; Solubility (Solubility; in methanol, dioxane, acetone and acetic acid): soluble
COC1=C(C)C(=O)c2c(cc(O)c(C)c2O)C1=O [P-23924 DR] |  |  |  |  |  |  |  | slightly soluble or insoluble |  |  |  |  | 20% | readily or easily soluble | slightly soluble or insoluble | 33% | 
COC1=C(C)C(=O)c2c(cc(OC)c(C)c2O)C1=O [P-23924 BR] |  |  |  |  |  |  |  | slightly soluble or insoluble |  |  |  |  | 22% | readily or easily soluble | slightly soluble or insoluble | 26% | 
COC1=CC(=O)c2c(cc(OC)c(C)c2O)C1=O [P-23924 CR] |  |  |  |  |  |  |  | slightly soluble or insoluble |  |  |  |  | 33% | readily or easily soluble | slightly soluble or insoluble | 40% | 
COC1=C(CO)C(=O)c2c(cc(OC)c(CSCC(NC(C)=O)C(=O)O)c2O)C1=O (stereo not shown) [P-23924F] | 21 µM | 38% | 71 ± 3 g | 2.47 ± 0.57 mg | 15.20 ± 1.53 mg | 15% | 50 to 100 mg/kg | slightly soluble or insoluble | acidic and fat-soluble | slightly soluble or insoluble | easily soluble | soluble |  |  |  |  | 
COC1=C(C)C(=O)c2c(cc(OC)c(CSCC(NC(C)=O)C(=O)O)c2O)C1=O (stereo not shown) [P-23924B] | 95 µM | 46% | 70 ± 5 g | 2.37 ± 0.43 mg |  | 19% | 50 to 100 mg/kg | slightly soluble or insoluble | acidic and fat-soluble | slightly soluble or insoluble | easily soluble | soluble |  |  |  |  | 
COc1cc2c(c(O)c1C)C(=O)C(C)=CC2=O [P-23924 AR] |  |  |  |  |  |  |  | slightly soluble or insoluble |  |  |  |  | 26% | readily or easily soluble | slightly soluble or insoluble | 37% | 
